# Columns and labels:
# human CB2 receptors = target: T1, human CB2 receptors (Homo sapiens, UniProt P34972); assay: cAMP assay in HEK-293 cells, hCB2 agonist; assay type: cell-based; conditions: inhibition of forskolin-stimulated cAMP, HEK-293 cells; for EC50: read-out: hCB2 EC50 (cAMP ag)
# T1 construct: (cDNA clone) CNR0200000
# Summary of the method: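 Stable hCB2 HEK-293 cells in HBSS/10 mM HEPES/0.1% fatty-acid-free BSA incubated 30 min at 37° C with compound; forskolin 90 uM in 3× compound mix.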
# human CB2 (hCB2) = target: T2, human CB2 (hCB2) (Homo sapiens, UniProt P34972); assay: 35S GTPγS binding assay, hCB2 agonist; assay type: biochemical; conditions: GTPγS agonist, HEK-293 membranes; read-out: hCB2 EC50 (GTPyS ag)
# T2 construct: (cDNA clone) CNR0200000
# T2 sequence (P34972 whole entry): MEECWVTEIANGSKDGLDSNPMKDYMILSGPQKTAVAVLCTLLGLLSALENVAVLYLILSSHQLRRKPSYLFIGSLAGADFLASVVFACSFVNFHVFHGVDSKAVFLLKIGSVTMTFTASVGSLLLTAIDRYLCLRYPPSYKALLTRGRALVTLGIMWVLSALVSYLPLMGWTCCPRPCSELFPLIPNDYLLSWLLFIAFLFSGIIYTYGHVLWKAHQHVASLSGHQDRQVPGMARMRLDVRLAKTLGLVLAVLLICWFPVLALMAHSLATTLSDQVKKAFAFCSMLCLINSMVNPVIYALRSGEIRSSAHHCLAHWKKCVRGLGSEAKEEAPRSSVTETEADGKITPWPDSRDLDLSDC
# Summary of the method: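 Agonist-stimulated [35S]GTPγS (0.1 nM) binding measured by scintillation proximity after 90 min at room temperature. Reaction buffer: 50 mM HEPES pH 7.4, 100 mM NaCl, 5 mM MgCl2, 0.001% saponin plus 20 uM GDP. Membranes (5 μg) came from transfected cells expressing hCB2 cDNA (pcDNA3.1+ vector).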
# [1] = target: T3, recombinant human cannabinoid receptor CB2 (Homo sapiens, UniProt P34972); assay: Cannabinoid receptor radioligand binding assay, [3H]-CP 55,940 displacement, hCB2
# T3 construct: (cDNA clone) CNR0200000
# T3 sequence (P34972 whole entry): as above
# Summary of the method: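 Receptor source: membrane pellet (40,000×g) from transfected cells, stored in HEPES pH 7.4/MgCl2/EDTA/sucrose buffer.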
# T1 sequence (P34972 whole entry): as above
SMILES,EC50 (human CB2 receptors),EC50 (human CB2 (hCB2)),IC50 [1],"hCB2 EC50 (cAMP ag, nM) (human CB2 receptors)"
"Cc1cc2cc(C(=O)c3cccc(Cl)c3)sc2n1CCN1CCOCC1 [Compound 4, (3-Chlorophenyl)(5-methyl-6-(2-morpholinoethyl)-6H-thieno[2,3-b]pyrrol-2-yl)methanone]",< 100 nM,< 100 nM,100 to 1000 nM,–
"Cc1cc2cc(C(=O)c3ccccc3)sc2n1CCN1CCOCC1 [Compound 7, (5-Methyl-6-(2-morpholinoethyl)-6H-thieno[2,3-b]pyrrol-2-yl)(phenyl)methanone]",< 100 nM,100 to 1000 nM,100 to 1000 nM,–
"Cc1cc2cc(C(=O)c3ccc(Cl)cc3Cl)sc2n1CCN1CCOCC1 [Compound 10, (2,4-Dichlorophenyl)(5-methyl-6-(2-morpholinoethyl)-6H-thieno[2,3-b]pyrrol-2-yl)methanone]",< 100 nM,< 100 nM,< 100 nM,–
"Cc1ccccc1C(=O)c1cc2cc(C)n(CCN3CCOCC3)c2s1 [Compound 12, (5-Methyl-6-(2-morpholinoethyl)-6H-thieno[2,3-b]pyrrol-2-yl)(o-tolyl)methanone]",< 100 nM,< 100 nM,< 100 nM,–
"CCn1c(C)cc2cc(C(=O)c3cccc(Cl)c3Cl)sc21 [Compound 19, (2,3-Dichlorophenyl)(6-ethyl-5-methyl-6H-thieno[2,3-b]pyrrol-2-yl)methanone]",< 100 nM,100 to 1000 nM,100 to 1000 nM,–
"CCS(=O)(=O)n1c(C)cc2cc(C(=O)c3cccc(Cl)c3Cl)sc21 [Compound 25, (2,3-Dichlorophenyl)(6-(ethylsulfonyl)-5-methyl-6H-thieno[2,3-b]pyrrol-2-yl)methanone]",< 100 nM,< 100 nM,< 100 nM,–
"COc1cccc(C(=O)c2cc3cc(C)n(CCN4CCOCC4)c3s2)c1 [Compound 26, (3-Methoxyphenyl)(5-methyl-6-(2-morpholinoethyl)-6H-thieno[2,3-b]pyrrol-2-yl)methanone]",< 100 nM,< 100 nM,< 100 nM,–
"Cc1cc2cc(C(=O)c3cccc(Cl)c3Cl)sc2n1CCc1ccccc1 [Compound 30, (2,3-Dichlorophenyl)(5-methyl-6-phenethyl-6H-thieno[2,3-b]pyrrol-2-yl)methanone]",< 100 nM,< 100 nM,< 100 nM,–
"Cc1cc2cc(C(=O)c3cccc(Cl)c3Cl)sc2n1CC1CCOCC1 [Compound 31, (2,3-Dichlorophenyl)(5-methyl-6-((tetrahydro-2H-pyran-4-yl)methyl)-6H-thieno[2,3-b]pyrrol-2-yl)methanone]",< 100 nM,< 100 nM,< 100 nM,–
"Cc1cc2cc(C(=O)c3cccc(Cl)c3Cl)sc2n1CCN1CCN(C)CC1 [Compound 33, (2,3-Dichlorophenyl)(5-methyl-6-(2-(4-methylpiperazin-1-yl)ethyl)-6H-thieno[2,3-b]pyrrol-2-yl)methanone]",–,–,1000 to 10000 nM,"NS (NS means “Not Significant,” which means less than 30% agonist activity when compared to the positive control.)"
"COc1ccc(C(=O)c2cc3cc(C)n(CCN4CCCOCC4)c3s2)cn1 [Compound 158, (6-(2-(1,4-oxazepan-4-yl)ethyl)-5-methyl-6H-thieno[2,3-b]pyrrol-2-yl)(6-methoxypyridin-3-yl)methanone]",< 100 nM,100 to 1000 nM,–,–
"COc1ccc(C(=O)c2cc3cc(C)n(CCNC4CCOC4)c3s2)cn1 (centres unmarked) [Compound 164, (6-methoxypyridin-3-yl)(5-methyl-6-(2-((tetrahydrofuran-3-yl)amino)ethyl)-6H-thieno[2,3-b]pyrrol-2-yl)methanone]",< 100 nM,1000 to 10000 nM,–,–
"COc1ccc(C(=O)c2cc3cc(C)n(CCN4CCCC4)c3s2)cn1 [Compound 167, (6-methoxypyridin-3-yl)(5-methyl-6-(2-(pyrrolidin-1-yl)ethyl)-6H-thieno[2,3-b]pyrrol-2-yl)methanone]",< 100 nM,1000 to 10000 nM,–,–

# — US20130029970A1 (priority 2009, published 2013)
